Reference: publication PMC8236452, “Pharmacokinetics and safety of rucaparib in patients with advanced solid tumors and hepatic impairment” (Cancer Chemotherapy and Pharmacology, 2021)

Key:
[1] = system: PARP; set-up: method as in earlier work; details: cited from earlier work
[2] = human, in vivo
Protocol: (§1) In Part 1, patients received a single oral dose of rucaparib 600 mg on day 1; PK samples were collected and safety monitored through day 7.
(§2) Sample collection, processing, and shipping were conducted according to standardized protocols shared across study sites. Plasma samples were collected for PK analysis at the predose assessment and at 1, 2, 3, 4, 8, 12, 24, 48, 72, 96, 120, and 144 h postdose. A predose urine sample was collected less than 12 h prior to study drug administration. Total urine was collected 0–12 h and 12–24 h postdose. Total (bound and unbound) concentrations of rucaparib and its metabolite M324 in plasma and urine samples were determined by Q Squared Solutions BioSciences (Ithaca, NY, USA) using validated liquid chromatography mass spectrometry/mass spectrometry methods. Stable deuterium-labeled analytes were used as internal standards. The assay calibration ranges for plasma samples were 5–10,000 ng/mL for rucaparib and 1–1000 ng/mL for M324 with lower limits of quantification (LLOQ) of 5.00 and 1.00 ng/mL, respectively. For urine samples, the calibration range was 500–50,000 ng/mL for both rucaparib and M324, with a LLOQ of 500 ng/mL for both analytes. The precision was within 9.3% CV, and the accuracy was within ± 6.2%.
(§3) PK parameters were estimated from the concentration–time profiles. Actual elapsed time after dosing was used to estimate plasma PK parameters based on noncompartmental methods using Phoenix® WinNonlin® version 8.1.0 (Certara USA, Inc., Princeton, NJ, USA). […] Exploratory PK parameters for M324 calculated based on plasma and urine concentration-time data were Cmax, AUC0–last, AUC0–inf, t1/2, tmax, Ae0–24, and CLR, as data allowed.
(§4) PK parameters were calculated by noncompartmental analysis, analyzed using descriptive statistics, and presented by hepatic functional status. Analysis of variance (ANOVA) was used to compare PK parameters (e.g., Cmax, AUC0–last, and AUC0–inf) between the normal hepatic function group and the moderate hepatic impairment group per NCI-ODWG criteria. PK values were log-transformed before analysis. Baseline covariates (e.g., creatinine clearance [CLcr], sex, age, BMI, and ECOG PS) were tested for any significant effect (P value < 0.05). Geometric least-squares means were used to calculate the ratios of the PK parameters in the hepatic impairment group to those in the control group, along with 90% confidence intervals (CIs). The Wilcoxon rank-sum test was used to compare tmax values between the two groups, and estimates of the median differences were determined, along with 90% CIs. In addition, the relationships between log-transformed PK parameters (AUC0–last, AUC0–inf, Cmax) for rucaparib and M324 and hepatic function parameters (bilirubin and aspartate aminotransferase [AST]) relevant to the classification of hepatic impairment according to NCI-ODWG were explored by a linear regression approach.

[3] = system: PARP; details: cited from earlier work
[4] = Plasma pharmacokinetics after a single oral dose of rucaparib 600 mg in patients with advanced solid tumors, by hepatic function group; details: for AUC0–last, Geometric LS means / Cmax, Geometric LS means: ANOVA; for AUC0–inf, GM / AUC0–inf, Mean (SD) / AUC0–inf, Median (min–max) / AUC0–last, GM / AUC0–last, Mean (SD) / AUC0–last, Median (min–max) / Cmax, GM / Cmax, Mean (SD) / Cmax, Median (min–max) / tmax, Median (min–max): single oral rucaparib 600 mg
Protocol: as §1, §2, §3, §4

[5] = cited from earlier work
[6] = ref unpublished results; cited from earlier work
[7] = Urine pharmacokinetics (Ae0–24, CLR) after a single oral dose of rucaparib 600 mg in patients with advanced solid tumors; format: in vivo, human; details: single oral rucaparib 600 mg; for Ae0–24, GM / Ae0–24, Mean (SD) / Ae0–24, Median (min–max): urine
From the text: Stable deuterium-labeled analytes were used as internal standards.
PK parameters were estimated from the concentration–time profiles.

[8] = NCI-ODWG moderate hepatic impairment (n = 8)
[9] = NCI-ODWG normal hepatic function (n = 8)
[10] = Child–Pugh mild hepatic impairment
[11] = Child–Pugh moderate hepatic impairment
[12] = Child–Pugh severe hepatic impairment
[13] = NCI-ODWG moderate hepatic impairment
[14] = NCI-ODWG normal hepatic function
[15] = linear regression of log-transformed PK parameter on hepatic function parameter (NCI-ODWG)

O=C(O)c1ccc(-c2[nH]c3cc(F)cc4c3c2CCNC4=O)cc1 [M324]
activity in in vitro target binding affinity and cytotoxicity assay [1]: inactive
AUC0–last, Geometric mean ratio Moderate/normal (90% CI) [2]: 1.483 (0.766–2.868)
Cmax, Geometric mean ratio Moderate/normal (90% CI) [2]: 1.055 (0.529–2.105)
biological activity, in vitro PARP inhibition data [3]: not biologically active
AUC0–last, Geometric LS means [4, 8]: 5930 h⋅ng/mL
Cmax, Geometric LS means [4, 8]: 76.7 ng/mL
AUC0–last, Geometric LS means [4, 9]: 4000 h⋅ng/mL
Cmax, Geometric LS means [4, 9]: 72.7 ng/mL
AUC0–inf, GM [4, 10]: 5590 h⋅ng/mL
AUC0–inf, Mean (SD) [4, 10]: 5800 (1720) h⋅ng/mL
AUC0–inf, Median (min–max) [4, 10]: 5700 (3960–8340) h⋅ng/mL
AUC0–last, GM [4, 10]: 4740 h⋅ng/mL
AUC0–last, Mean (SD) [4, 10]: 5070 (1910) h⋅ng/mL
AUC0–last, Median (min–max) [4, 10]: 5130 (2330–7890) h⋅ng/mL
Cmax, GM [4, 10]: 97.9 ng/mL
Cmax, Mean (SD) [4, 10]: 111 (62.9) ng/mL
Cmax, Median (min–max) [4, 10]: 98.7 (42.7–235) ng/mL
tmax, Median (min–max) [4, 10]: 4.00 (3.00–24.0) h
AUC0–inf, GM [4, 11]: 3580 h⋅ng/mL
AUC0–inf, Mean (SD) [4, 11]: 3840 (1590) h⋅ng/mL
AUC0–inf, Median (min–max) [4, 11]: 4190 (2100–5230) h⋅ng/mL
AUC0–last, GM [4, 11]: 4550 h⋅ng/mL
AUC0–last, Mean (SD) [4, 11]: 5690 (4710) h⋅ng/mL
AUC0–last, Median (min–max) [4, 11]: 3810 (1930–15,600) h⋅ng/mL
Cmax, GM [4, 11]: 57.4 ng/mL
Cmax, Mean (SD) [4, 11]: 64.1 (33.1) ng/mL
Cmax, Median (min–max) [4, 11]: 50.9 (28.9–118) ng/mL
tmax, Median (min–max) [4, 11]: 23.9 (4.03–72.0) h
AUC0–last, GM [4, 12]: 6840 h⋅ng/mL
AUC0–last, Mean (SD) [4, 12]: 15,900 (20,200) h⋅ng/mL
AUC0–last, Median (min–max) [4, 12]: 15,900 (1550–30,200) h⋅ng/mL
Cmax, GM [4, 12]: 72.5 ng/mL
Cmax, Mean (SD) [4, 12]: 164 (208) ng/mL
Cmax, Median (min–max) [4, 12]: 164 (16.9–311) ng/mL
tmax, Median (min–max) [4, 12]: 73.5 (2.97–144) h
AUC0–inf, GM [4, 13]: 4960 h⋅ng/mL
AUC0–inf, Mean (SD) [4, 13]: 4990 (720) h⋅ng/mL
AUC0–inf, Median (min–max) [4, 13]: 5230 (4190–5570) h⋅ng/mL
AUC0–last, GM [4, 13]: 5930 h⋅ng/mL
AUC0–last, Mean (SD) [4, 13]: 8940 (9600) h⋅ng/mL
AUC0–last, Median (min–max) [4, 13]: 4760 (1550–30,200) h⋅ng/mL
Cmax, GM [4, 13]: 76.7 ng/mL
Cmax, Mean (SD) [4, 13]: 105 (91.8) ng/mL
Cmax, Median (min–max) [4, 13]: 83.7 (16.9–311) ng/mL
tmax, Median (min–max) [4, 13]: 30.0 (2.97–144) h
AUC0–inf, GM [4, 14]: 4750 h⋅ng/mL
AUC0–inf, Mean (SD) [4, 14]: 5220 (2300) h⋅ng/mL
AUC0–inf, Median (min–max) [4, 14]: 4930 (2100–8340) h⋅ng/mL
AUC0–last, GM [4, 14]: 4000 h⋅ng/mL
AUC0–last, Mean (SD) [4, 14]: 4450 (2130) h⋅ng/mL
AUC0–last, Median (min–max) [4, 14]: 3810 (1930–7890) h⋅ng/mL
Cmax, GM [4, 14]: 72.7 ng/mL
Cmax, Mean (SD) [4, 14]: 90.1 (67.4) ng/mL
Cmax, Median (min–max) [4, 14]: 74.5 (28.9–235) ng/mL
tmax, Median (min–max) [4, 14]: 10.1 (3.00–24.0) h
Slope estimate (90% CI), AUC0-last vs AST [4, 15]: 0.001 (–0.001 to 0.004)
Slope estimate (90% CI), AUC0-last vs Bilirubin [4, 15]: –0.004 (–0.018 to 0.011)
Slope estimate (90% CI), Cmax vs AST [4, 15]: 0 (–0.002 to 0.003)
Slope estimate (90% CI), Cmax vs Bilirubin [4, 15]: –0.007 (–0.022 to 0.007)
formation of M324, share of total clearance of rucaparib [5]: ~ 1/3
plasma protein binding [6]: 91%
CLR, GM [7, 10]: 119 mL/min
CLR, Mean (SD) [7, 10]: 121 (26.2) mL/min
CLR, Median (min–max) [7, 10]: 114 (94.7–161) mL/min
CLR, GM [7, 11]: 68.5 mL/min
CLR, Mean (SD) [7, 11]: 90.5 (55.6) mL/min
CLR, Median (min–max) [7, 11]: 104 (12.7–163) mL/min
CLR, GM [7, 12]: 24.8 mL/min
CLR, Mean (SD) [7, 12]: 39.3 (43.1) mL/min
CLR, Median (min–max) [7, 12]: 39.3 (8.84–69.8) mL/min
CLR, GM [7, 13]: 47.7 mL/min
CLR, Mean (SD) [7, 13]: 72.7 (57.6) mL/min
CLR, Median (min–max) [7, 13]: 69.8 (8.84–163) mL/min
CLR, GM [7, 14]: 118 mL/min
CLR, Mean (SD) [7, 14]: 120 (24.0) mL/min
CLR, Median (min–max) [7, 14]: 113 (96.7–161) mL/min
Ae0–24, GM [7, 10]: 13.1 mg
Ae0–24, Mean (SD) [7, 10]: 16.1 (11.9) mg
Ae0–24, Median (min–max) [7, 10]: 14.5 (4.77–40.9) mg
Ae0–24, GM [7, 11]: 4.33 mg
Ae0–24, Mean (SD) [7, 11]: 5.44 (4.06) mg
Ae0–24, Median (min–max) [7, 11]: 4.29 (1.46–12.8) mg
Ae0–24, GM [7, 12]: 1.37 mg
Ae0–24, Mean (SD) [7, 12]: 1.38 (0.193) mg
Ae0–24, Median (min–max) [7, 12]: 1.38 (1.24–1.51) mg
Ae0–24, GM [7, 13]: 3.61 mg
Ae0–24, Mean (SD) [7, 13]: 5.46 (4.96) mg
Ae0–24, Median (min–max) [7, 13]: 2.88 (1.24–12.8) mg
Ae0–24, GM [7, 14]: 10.0 mg
Ae0–24, Mean (SD) [7, 14]: 13.7 (12.3) mg
Ae0–24, Median (min–max) [7, 14]: 10.9 (3.47–40.9) mg
